Measured values reported in paper PMC12974487, “Inhibition of FicD-mediated AMPylation and deAMPylation by isoprenoid diphosphates” (Proceedings of the National Academy of Sciences of the …, 2026).
Where a chain is given by its changes, count along the chain named.

Key:
FicD^WT = target: T1, FicD^WT (Homo sapiens, UniProt Q9BVA6); parameters: method as in PMID 25435325; conditions: cited from earlier work
T1 construct: soluble ER luminal domain (residues 105 to 458) of wild-type human FicD; 6xHis-Sumo (N, cleaved yes); made in house; host or cells: Rosetta(DE3) E. coli
T1 sequence (Q9BVA6 105-458): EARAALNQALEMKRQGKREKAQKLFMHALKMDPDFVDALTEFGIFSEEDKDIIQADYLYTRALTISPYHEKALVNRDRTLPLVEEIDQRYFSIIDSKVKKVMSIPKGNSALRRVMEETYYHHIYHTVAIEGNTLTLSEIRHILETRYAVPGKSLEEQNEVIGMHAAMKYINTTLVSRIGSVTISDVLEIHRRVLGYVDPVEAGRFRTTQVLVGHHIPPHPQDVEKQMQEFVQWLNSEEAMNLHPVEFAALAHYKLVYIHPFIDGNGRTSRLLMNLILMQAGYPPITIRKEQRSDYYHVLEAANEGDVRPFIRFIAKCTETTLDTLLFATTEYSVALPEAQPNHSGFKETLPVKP

FicD^E234G = target: T2, FicD^E234G (Homo sapiens, UniProt Q9BVA6, E234G); assay: Total (intact) mass analysis of FicD^E234G incubated with FPP; conditions: 50uM FPP, 5mM MgCl2
T2 construct: soluble ER luminal domain (residues 105 to 458) of wild-type human FicD and three mutants; 6xHis-Sumo (N, cleaved yes); made in house; host or cells: Rosetta(DE3) E. coli
T2 sequence (Q9BVA6 105-458 E234G): T1 sequence (Q9BVA6 105-458) with E130G
Description: To reveal the mechanism of FicD inhibition by FPP, we leveraged the FicD^E234G mutant for structural studies. We soaked FPP into crystals of the FicD^E234G variant and solved the ligand-bound structure (Fig. 5 A and B). […] The diphosphate group of FPP closely overlapped with the ADP diphosphate when superimposed with a FicD^E234G-ADP structure (Fig. 5 A, Left), and the hydrophobic isoprenyl groups of FPP overlap with the nucleoside in the active site binding pocket (Fig. 5 A, Right). The FPP diphosphate binds directly to the side chains of N369, R371, with the sidechain of D367 coordinating the Mg^2+ (Fig. 5B). These interactions mimic those observed between ADP/ATP and FicD ([26]). […] As previously noted, only GPP and FPP could bind to and inhibit FicD, but analogs of the isoprenoid-pyrophosphate metabolites (geraniol, GMP, farnesol, FMP, DMAPP, and MVAPP) could not (Fig. 2 B–D). Together, these observations indicate both the pyrophosphate head and the long isoprenoid tail of GPP/FPP contribute to the binding with FicD. […]
Intact mass analysis of proteins was performed by the UT Southwestern Proteomics Core. Intact protein samples were analyzed by LC/MS, using a Sciex X500B QTOF mass spectrometer operating in positive ion mode, coupled to an Agilent 1290 Infinity II HPLC. […]

In the case of `Nc1ncnc2c1ncn2[C@@H]1O[C@H](COP(=O)(O)OP(=O)(O)O)[C@@H](O)[C@H]1O` [ADP], the Kd (FicD^WT) is listed as 1.5 µM.
In the case of `CC(C)=CCC/C(C)=C/CC/C(C)=C/COP(=O)(O)OP(=O)(O)O` [FPP, farnesyl-pyrophosphate], the “mass shift associated with putative FPP automodification” value (FicD^E234G) is reported as “no mass shift”.
